{"source": "patent US12331224B2", "about": "“Two-part epoxy compositions for adherent coatings of storage articles” (SWIMC LLC, priority 2019, dated 2025)", "key": {"[1]": {"test_system": "MCF-7, clone WS8, cells", "assay": "MCF-7 cell proliferation assay of estrogenic agonist activity", "type": "cell-based, human", "conditions": "logarithmic (base 10) Relative Proliferative Effect in MCF-7 assay; expected or measured values", "text": "As used herein, the terms “estrogenic agonist activity” or “estrogenic activity” refer to the ability of a compound to mimic hormone-like activity through interaction with an endogenous estrogen receptor, typically an endogenous human estrogen receptor. […] The MCF-7 assay uses MCF-7, clone WS8, cells to measure whether and to what extent a substance induces cell proliferation via estrogen receptor (ER)-mediated pathways. The method is described in “Test Method Nomination: MCF-7 Cell Proliferation Assay of Estrogenic agonist activity” submitted for validation by CertiChem, Inc. to the National Toxicology Program Interagency Center for the Evaluation of Alternative Toxicological Methods (NICEA™) on Jan. 19, 2006 (available online at http://iccvam.niehs.nih.gov/methods/endocrine/endodocs/SubmDoc.pdf). As a brief summary of the assay, MCF-7, clone WS8, cells are maintained at 37° C. in RMPI (or Roswell Park Memorial Institute medium) containing Phenol Red (e.g., GIBCO Catalog Number 11875119) and supplemented with the indicated additives for routine culture. An aliquot of cells maintained at 37° C. are grown for 2 days in phenol-free media containing 5% charcoal stripped fetal bovine serum in a 25 cm^2 tissue culture flask. Using a robotic dispenser such as an epMotion 5070 unit, MCF-7 cells are then seeded at 400 cells per well in 0.2 ml of hormone-free culture medium in Corning 96-well plates. The cells are adapted for 3 days in the hormone-free culture medium prior to adding the chemical to be assayed for estrogenic agonist activity. The media containing the test chemical is replaced daily for 6 days. At the end of the 7-day exposure to the test chemical, the media is removed, the wells are washed once with 0.2 ml of HBSS (Hanks' Balanced Salt Solution), and then assayed to quantify amounts of DNA per well using a micro-plate modification of the Burton diphenylamine (DPA) assay, which is used to calculate the level of cell proliferation.\nRPE is the ratio between the EC50 of the test chemical and the EC50 of the control substance 17-beta estradiol times 100, where EC50 is “effective concentration 50%” or half-maximum stimulation concentration for cell proliferation measured as total DNA in the MCF-7 assay.\nTables 1 and 2 provided below include some compounds and their expected or measured logarithmic RPE values in the MCF-7 assay."}, "[2]": {"molecular_target": "T1, estrogen receptor (Homo sapiens, UniProt P03372)", "T1 sequence (P03372 1-595)": "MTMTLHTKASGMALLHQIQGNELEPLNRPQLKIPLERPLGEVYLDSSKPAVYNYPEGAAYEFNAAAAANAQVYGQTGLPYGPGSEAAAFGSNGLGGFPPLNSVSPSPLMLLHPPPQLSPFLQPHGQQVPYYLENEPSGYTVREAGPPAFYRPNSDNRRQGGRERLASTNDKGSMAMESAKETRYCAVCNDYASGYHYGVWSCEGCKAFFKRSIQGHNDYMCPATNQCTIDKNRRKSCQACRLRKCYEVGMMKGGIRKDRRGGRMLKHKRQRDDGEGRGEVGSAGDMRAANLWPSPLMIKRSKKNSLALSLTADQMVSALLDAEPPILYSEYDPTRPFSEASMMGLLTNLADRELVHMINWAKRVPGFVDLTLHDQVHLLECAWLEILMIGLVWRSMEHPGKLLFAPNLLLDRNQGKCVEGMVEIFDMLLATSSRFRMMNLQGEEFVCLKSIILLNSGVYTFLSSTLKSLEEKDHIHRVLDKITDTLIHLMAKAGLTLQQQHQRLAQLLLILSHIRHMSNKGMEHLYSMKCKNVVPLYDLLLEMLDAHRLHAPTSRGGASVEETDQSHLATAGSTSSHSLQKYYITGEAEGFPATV", "assay": "suitable in vitro assay of estrogenic agonist activity correlated to the MCF-7 assay", "conditions": "suitable in vitro assay correlated to MCF-7 assay", "text": "While not intending to be bound by any theory, it is believed that the positioning of one or more R^1 groups at an ortho position relative to the oxygen atom depicted in Formulas (I) and (IA) may be particularly beneficial in reducing or eliminating estrogenic agonist activity."}, "[3]": {"assay": "Gel-time comparison of two-part epoxy compositions with curing agents", "type": "physicochemical", "conditions": "for Gel time: 1:1 stoichiometric mix, 100 g; for Difference in gel time: TMBPFDGE minus BADGE; for Gel-Time % increase: from BADGE to TMBPFDGE", "description": "Two-part epoxy compositions of bisphenol A diglycidyl ether (BADGE) (e.g., molecular weight of approximately 340 g/mol) and tetramethyl bisphenol F diglycidyl ether (TMBPFDGE) were prepared and mixed with various amine-based curing agents to compare the respective gel times of the compositions. The BADGE and TMBPFDGE monomer epoxides (e.g., molecular weight of approximately 340.4 g/mol and 368.6 g/mol respectively) were reduced to approximately 90% weight solids with xylene solvent. Gel times were measured using 100 g mass samples with a Paul N. Gardner Co, Inc. gel time recorder model S-5154. The gel-time values reported are in minutes, along with the difference between BADGE and TMBPFDGE compositions using the same curing agent, and the percent increase in gel time from BADGE to TMBPFDGE."}, "[4]": {"conditions": "curing agent ANACAMIDE 375A (polyamide)"}, "[5]": {"conditions": "curing agent ANACAMINE 503 (amidoamine)"}, "[6]": {"conditions": "curing agent ANACAMINE 2393 (cycloaliphatic amine)"}, "[7]": {"conditions": "curing agent CARDOLITE 3040 (phenalkamide)"}, "[8]": {"conditions": "curing agent CARDOLITE NC541 (phenalkamine)"}, "[9]": {"conditions": "curing agent GABEPRO GPM-830CB (mercaptan)"}, "[10]": {"conditions": "curing agent TETA, epoxy 90% solids in xylene"}}, "data": [{"smiles": "Cc1cc(Cc2cc(C)cc(C3(C)CCCCC3)c2O)c(O)c(C2(C)CCCCC2)c1", "note": "[2,2′-Methylenebis(6-(1-methylcyclohexyl)-4-methylphenol]", "values": [{"measurement": "Log RPE", "setting": "[1]", "result": "less than −4"}]}, {"smiles": "Cc1cc(Cc2cc(C)cc(C(C)(C)C)c2O)c(O)c(C(C)(C)C)c1", "note": "[2,2′-methylenebis(4-methyl-6-t-butylphenol)]", "values": [{"measurement": "estrogenic agonist activity", "setting": "[2]", "result": "do not exhibit appreciable estrogenic agonist activity"}]}, {"smiles": "CC(C)(C)c1cc(O)c(C(C)(C)C)cc1O", "note": "[2,5-di-t-butylhydroquinone]", "values": [{"measurement": "estrogenic agonist activity", "setting": "[2]", "result": "do not exhibit appreciable estrogenic agonist activity"}]}, {"smiles": "CCCC(c1cc(C(C)(C)C)c(O)cc1C)c1cc(C(C)(C)C)c(O)cc1C", "note": "[4,4′-butylidenebis(2-t-butyl-5-methylphenol)]", "values": [{"measurement": "estrogenic agonist activity", "setting": "[2]", "result": "do not exhibit appreciable estrogenic agonist activity"}]}, {"smiles": "CC(C)(C)c1cc(Cc2cc(C(C)(C)C)c(O)c(C(C)(C)C)c2)cc(C(C)(C)C)c1O", "note": "[4,4′-methylenebis(2,6-di-t-butylphenol)]", "values": [{"measurement": "estrogenic agonist activity", "setting": "[2]", "result": "do not exhibit appreciable estrogenic agonist activity"}]}, {"smiles": "Cc1cc(Cc2cc(C)c(O)c(C)c2)cc(C)c1O", "note": "[4,4′-methylenebis(2,6-dimethylphenol)]", "values": [{"measurement": "estrogenic agonist activity", "setting": "[2]", "result": "do not exhibit appreciable estrogenic agonist activity"}]}, {"smiles": "C[C@]12CC[C@@H]3c4ccc(O)cc4CC[C@H]3[C@@H]1CC[C@@H]2O", "note": "[17β-estradiol]", "values": [{"measurement": "Log RPE", "setting": "[1]", "result": 2.00}]}, {"smiles": "CC(C)(c1ccc(OCC2CO2)cc1)c1ccc(OCC2CO2)cc1", "note": "(centres unmarked) [BADGE, bisphenol A diglycidyl ether, reference compound]", "values": [{"measurement": "Gel time", "setting": "[3]; [4]", "result": 312, "unit": "min"}, {"measurement": "Gel time", "setting": "[3]; [5]", "result": 211, "unit": "min"}, {"measurement": "Gel time", "setting": "[3]; [6]", "result": 55, "unit": "min"}, {"measurement": "Gel time", "setting": "[3]; [7]", "result": 198, "unit": "min"}, {"measurement": "Gel time", "setting": "[3]; [8]", "result": 86, "unit": "min"}, {"measurement": "Gel time", "setting": "[3]; [9]", "result": 16, "unit": "min"}, {"measurement": "Gel time", "setting": "[3]; curing agent PACM", "result": 275, "unit": "min"}, {"measurement": "Gel time", "setting": "[3]; [10]", "result": 74, "unit": "min"}]}, {"smiles": "Oc1ccc(Cc2ccc(O)cc2)cc1", "note": "[Bisphenol F]", "values": [{"measurement": "Log RPE", "setting": "[1]", "result": "−2"}]}, {"smiles": "O=S(=O)(c1ccc(O)cc1)c1ccc(O)cc1", "note": "[Bisphenol S]", "values": [{"measurement": "Log RPE", "setting": "[1]", "result": "−2"}]}, {"smiles": "Cc1cc(Cc2cc(C)c(OCC3CO3)c(C)c2)cc(C)c1OCC1CO1", "note": "(centres unmarked) [TMBPFDGE, tetramethyl bisphenol F diglycidyl ether]", "values": [{"measurement": "Difference in gel time", "setting": "[3]; [4]", "result": 454, "unit": "min"}, {"measurement": "Difference in gel time", "setting": "[3]; [5]", "result": 469, "unit": "min"}, {"measurement": "Difference in gel time", "setting": "[3]; [6]", "result": 343, "unit": "min"}, {"measurement": "Difference in gel time", "setting": "[3]; [7]", "result": 370, "unit": "min"}, {"measurement": "Difference in gel time", "setting": "[3]; [8]", "result": 206, "unit": "min"}, {"measurement": "Difference in gel time", "setting": "[3]; [9]", "result": 82, "unit": "min"}, {"measurement": "Difference in gel time", "setting": "[3]; curing agent PACM", "result": 510, "unit": "min"}, {"measurement": "Difference in gel time", "setting": "[3]; curing agent TETA", "result": 333, "unit": "min"}, {"measurement": "Gel time", "setting": "[3]; [4]", "result": 766, "unit": "min"}, {"measurement": "Gel time", "setting": "[3]; [5]", "result": 680, "unit": "min"}, {"measurement": "Gel time", "setting": "[3]; [6]", "result": 398, "unit": "min"}, {"measurement": "Gel time", "setting": "[3]; [7]", "result": 568, "unit": "min"}, {"measurement": "Gel time", "setting": "[3]; [8]", "result": 292, "unit": "min"}, {"measurement": "Gel time", "setting": "[3]; [9]", "result": 98, "unit": "min"}, {"measurement": "Gel time", "setting": "[3]; curing agent PACM", "result": 785, "unit": "min"}, {"measurement": "Gel time", "setting": "[3]; [10]", "result": 407, "unit": "min"}, {"measurement": "Gel-Time % increase", "setting": "[3]; [4]", "result": 146, "unit": "%"}, {"measurement": "Gel-Time % increase", "setting": "[3]; [5]", "result": 222, "unit": "%"}, {"measurement": "Gel-Time % increase", "setting": "[3]; [6]", "result": 624, "unit": "%"}, {"measurement": "Gel-Time % increase", "setting": "[3]; [7]", "result": 187, "unit": "%"}, {"measurement": "Gel-Time % increase", "setting": "[3]; [8]", "result": 240, "unit": "%"}, {"measurement": "Gel-Time % increase", "setting": "[3]; [9]", "result": 513, "unit": "%"}, {"measurement": "Gel-Time % increase", "setting": "[3]; curing agent PACM", "result": 185, "unit": "%"}, {"measurement": "Gel-Time % increase", "setting": "[3]; curing agent TETA", "result": 450, "unit": "%"}]}]}
